Experimental data: patent US11401510B2, “Generation of airway basal stem cells from human pluripotent stem cells” (TRUSTEES OF BOSTON UNIVERSITY, priority 2020, dated 2022)

What was measured:
[1] = target: CFTR in ALI cultures generated from corrected CF iPSCs (Corr CF) (Homo sapiens, UniProt P13569); test: Ussing chamber analysis of CFTR-dependent current, corrected CF ALI cultures; details: Corr CF (gene-corrected) iPSC-derived ALI cultures, after amiloride; mean±SD, n=3
Experimental: For CF modeling, gene editing was used to correct the F508del CFTR mutation. Pre- and post-gene corrected paired syngeneic iPSC clones (hereafter CF and Corr CF) were differentiated into iBCs in the present protocol, sorted using the present antibody-based-method and generated ALI cultures composed of BCs, SCs, and MCCs (FIG. 6A). CFTR-dependent current, representing ion flux regulated by apically localized CFTR, was measured using the gold-standard Ussing chamber approach.
Ussing chamber experiments were performed on EasyMount Ussing Chamber Systems at voltage clamp mode, and Acquiciliare™ & Analyze software (Physiologic Instruments) was employed to record and analyze data. Briefly, Transwell inserts were mounted into chambers and bathed in low chloride Ringer's solution (1.2 mM NaCl, 140 mM Na-gluconate, 25 mM NaHCO3, 3.33 mM KH2PO4, 0.83 mM K2HPO4, 1.2 mM CaCl2, 1.2 mM MgCl2, 10 mM glucose) at apical and Ringer's solution (120 mM NaCl, 25 mM NaHCO3, 3.33 mM KH2PO4, 0.83 mM K2HPO4, 1.2 mM CaCl2, 1.2 mM MgCl2, 10 mM glucose) at basolateral side of monolayer. After base line is stabilized, 100 pM amiloride (Sigma) applied to both sides of the chamber to carry out complete inhibition of ENaC (Epithelial sodium channel). Subsequently, 10 pM forskolin (Sigma) were administered to stimulate chloride current. […] The resulting change in short circuit current was calculated as DIsc. […]

[2] = target: CFTR (F508del) in ALI cultures generated from CF iPSCs (Homo sapiens, UniProt P13569, DEL508-508); test: Ussing chamber analysis of CFTR-dependent current, CF ALI cultures; format: cell-based; details: CF (F508del homozygous) iPSC-derived ALI cultures, after amiloride
Experimental: Pre- and post-gene corrected paired syngeneic iPSC clones (hereafter CF and Corr CF) were differentiated into iBCs in the present protocol, sorted using the present antibody-based-method and generated ALI cultures composed of BCs, SCs, and MCCs (FIG. 6A). CFTR-dependent current, representing ion flux regulated by apically localized CFTR, was measured using the gold-standard Ussing chamber approach.
Ussing chamber experiments were performed on EasyMount Ussing Chamber Systems at voltage clamp mode, and Acquiciliare™ & Analyze software (Physiologic Instruments) was employed to record and analyze data. […] Subsequently, 10 pM forskolin (Sigma) were administered to stimulate chloride current. […] For BU3 NGPT derived ALI, 5 pM VX-770, CFTR modulator, was treated subsequent to forskolin. The resulting change in short circuit current was calculated as DIsc. The data were expressed in mean±SD.

[3] = test system: BU3 NGPT iBC-derived ALI cultures; test: Mucus cell metaplasia model: IL-13 treatment of iBC-derived ALI cultures; format: cell-based, human
Experimental: Human airway epithelium has diverse biologic and physiologic roles, some of which are uniquely affected by disease. it was tested whether iBC-derived ALI cultures could recapitulate features of the three airway disorders with distinct epithelial characteristics: (1) mucus cell metaplasia in asthma; (2) abnormal ion-flux seen in CF; and (3) defective ciliary beating seen in PCD. First, it was tested whether iBC-derived ALI cultures could recapitulate the mucus cell metaplasia seen in asthma. Interleukin-13 (IL-13) is an inflammatory cytokine in asthma and can induce mucus metaplasia. A number of studies, in mice and primary human airway epithelial cell cultures, have found IL-13 leads to increased MUC5AC+ cell numbers via the activation of STAT6 and SPDEF, at the expense of MCCs and MUC5B+ cell frequencies (Kondo et al., 2002; Seibold, 2018; Woodruff et al., 2009).
BU3 NGPT iBSC-derived ALI culture was prepared as described above. Ten days after air-lifted, cells were treated with 10 ng/ml IL-13 and cultured for 10 days prior to the assessments. Mucus cell metaplasia was assessed by immunofluorescence staining for the increment of MUC5AC expressing cells or gene expression changes via qRT-PCR. Quantification of MUC5AC+ cells was performed using ImageJ™ software by manually counting MUC5AC+ cells in 3 randomly selected fields per well (n=3 wells per condition).
RNA was extracted by first lysing cells in QIAzol (QIAGEN) and subsequently using the RNeasy Mini kit (QIAGEN). Taqman Fast Universal PCR mastermix (Applied Biosystems) were used to reverse transcribe RNA into cDNA and analyzed during 40 cycles of real time PCR using Taqman probes (Applied Biosystems). Relative gene expression, normalized to 18S control, was calculated as fold change in 18S-normalized gene expression, over baseline, using the 2(-DDCT) method. Baseline, defined as fold change=1, was set to undifferentiated iPSCs. If undetected, a cycle number of 40 was assigned to allow fold change calculations.

[4] = IL-13 treated vs untreated, qRT-PCR

Chain of CFTR (F508del) in ALI cultures generated from CF iPSCs (P13569 with tags, fused parts or gaps DEL508-508): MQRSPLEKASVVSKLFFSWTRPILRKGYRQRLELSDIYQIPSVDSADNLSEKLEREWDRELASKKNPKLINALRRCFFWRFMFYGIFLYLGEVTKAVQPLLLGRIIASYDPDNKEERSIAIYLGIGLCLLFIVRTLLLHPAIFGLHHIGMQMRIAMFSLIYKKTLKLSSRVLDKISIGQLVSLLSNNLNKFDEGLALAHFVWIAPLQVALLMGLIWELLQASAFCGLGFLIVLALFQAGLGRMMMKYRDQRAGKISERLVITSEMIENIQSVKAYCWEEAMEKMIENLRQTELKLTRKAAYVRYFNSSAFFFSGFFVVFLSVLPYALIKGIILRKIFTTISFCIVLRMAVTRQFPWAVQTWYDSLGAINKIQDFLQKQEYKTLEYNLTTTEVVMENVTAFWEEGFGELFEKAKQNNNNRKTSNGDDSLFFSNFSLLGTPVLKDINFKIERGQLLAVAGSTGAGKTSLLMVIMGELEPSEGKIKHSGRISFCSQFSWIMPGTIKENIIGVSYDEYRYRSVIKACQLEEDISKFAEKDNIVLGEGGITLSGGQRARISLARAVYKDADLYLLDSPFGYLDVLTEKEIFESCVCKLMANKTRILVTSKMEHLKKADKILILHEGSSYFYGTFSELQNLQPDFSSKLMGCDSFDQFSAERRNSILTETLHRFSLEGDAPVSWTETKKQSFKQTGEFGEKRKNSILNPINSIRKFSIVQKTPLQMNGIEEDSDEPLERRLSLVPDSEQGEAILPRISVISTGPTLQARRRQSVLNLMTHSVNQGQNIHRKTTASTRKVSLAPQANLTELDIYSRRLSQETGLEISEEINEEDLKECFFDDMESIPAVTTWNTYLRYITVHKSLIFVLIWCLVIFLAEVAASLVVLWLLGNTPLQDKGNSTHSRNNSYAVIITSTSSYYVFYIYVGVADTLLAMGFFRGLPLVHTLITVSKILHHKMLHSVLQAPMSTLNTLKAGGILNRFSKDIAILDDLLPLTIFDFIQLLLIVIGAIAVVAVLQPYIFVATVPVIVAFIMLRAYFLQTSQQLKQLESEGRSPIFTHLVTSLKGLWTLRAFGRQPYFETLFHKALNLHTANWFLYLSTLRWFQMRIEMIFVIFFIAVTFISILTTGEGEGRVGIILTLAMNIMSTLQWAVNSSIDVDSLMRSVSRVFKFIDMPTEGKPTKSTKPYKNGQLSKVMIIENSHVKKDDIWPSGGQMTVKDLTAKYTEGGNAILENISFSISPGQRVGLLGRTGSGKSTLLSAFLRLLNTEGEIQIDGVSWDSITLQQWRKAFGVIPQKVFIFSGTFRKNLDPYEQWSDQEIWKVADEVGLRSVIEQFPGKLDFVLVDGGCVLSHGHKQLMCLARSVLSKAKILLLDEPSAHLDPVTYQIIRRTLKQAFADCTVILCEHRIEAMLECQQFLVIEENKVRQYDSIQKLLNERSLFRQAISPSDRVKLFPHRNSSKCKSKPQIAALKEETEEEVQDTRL
Chain of CFTR in ALI cultures generated from corrected CF iPSCs (Corr CF) (P13569 whole entry): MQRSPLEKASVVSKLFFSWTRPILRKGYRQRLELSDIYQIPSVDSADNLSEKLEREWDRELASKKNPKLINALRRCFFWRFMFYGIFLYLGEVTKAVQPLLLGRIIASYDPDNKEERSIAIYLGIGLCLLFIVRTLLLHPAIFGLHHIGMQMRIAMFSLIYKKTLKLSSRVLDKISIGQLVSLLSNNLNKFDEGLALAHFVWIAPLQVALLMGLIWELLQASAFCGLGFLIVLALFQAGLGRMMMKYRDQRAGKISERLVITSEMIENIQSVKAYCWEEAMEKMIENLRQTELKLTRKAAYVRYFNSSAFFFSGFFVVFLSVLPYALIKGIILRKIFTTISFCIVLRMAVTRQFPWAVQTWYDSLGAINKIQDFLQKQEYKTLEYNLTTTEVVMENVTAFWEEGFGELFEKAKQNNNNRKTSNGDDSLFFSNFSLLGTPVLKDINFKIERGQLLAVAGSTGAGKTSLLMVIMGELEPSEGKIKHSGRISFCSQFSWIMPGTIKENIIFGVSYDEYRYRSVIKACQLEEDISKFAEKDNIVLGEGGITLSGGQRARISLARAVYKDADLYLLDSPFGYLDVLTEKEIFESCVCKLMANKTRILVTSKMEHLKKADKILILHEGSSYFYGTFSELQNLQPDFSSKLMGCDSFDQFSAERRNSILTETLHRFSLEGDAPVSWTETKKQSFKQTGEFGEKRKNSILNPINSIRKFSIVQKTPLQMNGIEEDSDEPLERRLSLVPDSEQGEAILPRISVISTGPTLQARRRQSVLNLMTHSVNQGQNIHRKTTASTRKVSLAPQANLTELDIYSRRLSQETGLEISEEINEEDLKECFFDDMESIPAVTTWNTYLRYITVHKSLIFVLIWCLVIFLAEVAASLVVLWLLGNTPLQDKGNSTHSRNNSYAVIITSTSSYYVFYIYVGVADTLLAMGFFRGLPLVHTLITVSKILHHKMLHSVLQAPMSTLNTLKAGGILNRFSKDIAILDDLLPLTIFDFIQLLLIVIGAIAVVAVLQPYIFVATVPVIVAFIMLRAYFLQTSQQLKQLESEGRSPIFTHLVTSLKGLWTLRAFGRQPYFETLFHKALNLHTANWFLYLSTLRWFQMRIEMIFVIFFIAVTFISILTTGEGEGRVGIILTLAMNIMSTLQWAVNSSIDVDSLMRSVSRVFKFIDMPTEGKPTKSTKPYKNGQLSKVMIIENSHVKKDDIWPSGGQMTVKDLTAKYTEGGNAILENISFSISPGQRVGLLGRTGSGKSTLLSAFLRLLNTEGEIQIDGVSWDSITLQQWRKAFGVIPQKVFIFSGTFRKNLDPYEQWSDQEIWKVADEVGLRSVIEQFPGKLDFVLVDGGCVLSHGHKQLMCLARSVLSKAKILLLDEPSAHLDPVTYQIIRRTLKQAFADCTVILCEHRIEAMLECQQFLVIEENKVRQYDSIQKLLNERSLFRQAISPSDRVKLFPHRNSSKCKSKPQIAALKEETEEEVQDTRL

Substance: CFTRInh-172
- AIsc (change in short circuit current) [1]: −43.2±2.5 pA/cm2
- AIsc (change in short circuit current) [2]: −0.8 pA/cm2

Substance: IL-13: inflammatory Th-2 cytokine in asthma that can induce mucus metaplasia
- fold increase in numbers of MUC5AC+ cells ([3]; 10 ng/ml IL-13 added on day 10 of ALI differentiation, 10 days, vs untreated, p=0.002): 1.75 fold
- MUC5B expression [3, 4]: decrease
- expression of goblet cell transcriptional regulator SPDEF [3, 4]: increased expression
